Experimental data as given in US5508180A, “Biocatalytic oxidation using soybean peroxidase” (Enzymol International, Inc., priority 1994, dated 1996).

Tests used:
soybean peroxidase [1] = target: T1, soybean peroxidase (Glycine max, UniProt O22443); assay: N-demethylation of N,N-dimethylanthranilic acid methyl ester by soybean peroxidase; assay type: biochemical
T1 construct: secreted heme glycoprotein, reported 37 kDa
Protocol: N,N-Dimethylanthranilic acid methyl ester (DMA) and the product of N-demethylation, N-methylanthranilic acid methyl ester (NMA), were purchased from TCI America (Portland, Oreg.). […] Using 1 g. (5mM) DMA in 25 mM acetate, pH 4.5, 120 ppu SBP and 1 mM H202, the increases observed were: 295 nm - 0.727 AU per min; 379 nm -0.403 AU per min. To optimize N-demethylation, the effect of pH was studied using 25 mM buffers at the appropriate pH.

soybean peroxidase [2] = target: T1, soybean peroxidase; assay: Chlorination of dimedone to 2-chlorodimedone catalyzed by soybean peroxidase; assay type: biochemical; settings: for Absorbance Units at 307 nm: pH 2, 120 ppu SBP, 1 mM H2O2, room temperature
Protocol: A stock solution (9.5 mM dimedone) was prepared by adding 1 g. 5,5-dimethyl-1,3-cyclohexane dione (dimedone) to […]. The solution was stirred to dissolve the dimedone and the pH adjusted to 2 with HCl. Chlorination of dimedone was catalyzed by soybean peroxidase (120 ppu) at pH 2 and 1 mM H2 O2. Increase in absorbance at 307 nm, corresponding to the absorbance maximum of 2-chlorodimedone was followed at room temperature and is shown in Table 9.
The effect of temperature on cholrination of dimedone was studied under these conditions. Reactions were performed as described above with increasing assay temperature.

T1 sequence (O22443 27-332): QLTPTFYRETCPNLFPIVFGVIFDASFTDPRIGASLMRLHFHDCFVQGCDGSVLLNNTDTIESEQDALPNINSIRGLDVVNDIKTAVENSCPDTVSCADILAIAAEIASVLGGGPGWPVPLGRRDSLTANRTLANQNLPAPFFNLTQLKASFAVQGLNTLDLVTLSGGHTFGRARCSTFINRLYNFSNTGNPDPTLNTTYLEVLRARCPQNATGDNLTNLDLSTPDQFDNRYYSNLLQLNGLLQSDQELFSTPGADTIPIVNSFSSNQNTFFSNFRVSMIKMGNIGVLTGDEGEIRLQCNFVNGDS

Row | Compound | increase in absorbance at 295 nm (soybean peroxidase [1]; 5mM DMA, 25 mM acetate pH 4.5, 120 ppu SBP, 1 mM H2O2) [AU per min] | dA per min at 379 nm (soybean peroxidase [1]; pH 1, 25 mM buffer) | dA per min at 379 nm (soybean peroxidase [1]; pH 2, 25 mM buffer) | dA per min at 379 nm (soybean peroxidase [1]; pH 3, 25 mM buffer) | dA per min at 379 nm (soybean peroxidase [1]; pH 4, 25 mM buffer) | dA per min at 379 nm (soybean peroxidase [1]; pH 5, 25 mM buffer) | dA per min at 379 nm (soybean peroxidase [1]; pH 6, 25 mM buffer) | dA per min at 379 nm (soybean peroxidase [1]; pH 7, 25 mM buffer) | dA per min at 307 nm (soybean peroxidase [2]; 25 °C, pH 2) | dA per min at 307 nm (soybean peroxidase [2]; 35 °C, pH 2) | dA per min at 307 nm (soybean peroxidase [2]; 45 °C, pH 2) | dA per min at 307 nm (soybean peroxidase [2]; 55 °C, pH 2) | dA per min at 307 nm (soybean peroxidase [2]; 65 °C, pH 2) | dA per min at 307 nm (soybean peroxidase [2]; 75 °C, pH 2) | optimal temperature of oxidative chlorination (soybean peroxidase [2]; pH 2) | Absorbance Units at 307 nm (soybean peroxidase [2]; time of reaction 0 min) [Absorbance Units] | Absorbance Units at 307 nm (soybean peroxidase [2]; time of reaction 1 min) [Absorbance Units] | Absorbance Units at 307 nm (soybean peroxidase [2]; time of reaction 2 min) [Absorbance Units] | Absorbance Units at 307 nm (soybean peroxidase [2]; time of reaction 3 min) [Absorbance Units] | Absorbance Units at 307 nm (soybean peroxidase [2]; time of reaction 7 min) [Absorbance Units]
1 | COC(=O)c1ccccc1N(C)C [DMA, N,N-Dimethylanthranilic acid methyl ester] | 0.727 | 0.005 | 0.2603 | 0.099 | 0.181 | 0.2401 | 0.1095 | 0.0065 |  |  |  |  |  |  |  |  |  |  |  | 
2 | CC1(C)CC(=O)CC(=O)C1 [dimedone, 5,5-dimethyl-1,3-cyclohexane dione] |  |  |  |  |  |  |  |  | 0.1066 | 0.1204 | 0.1962 | 0.1792 | 0.0155 | 0.0181 | about 45 °C | 0.175 | 0.275 | 0.510 | 0.800 | 0.868
